Experimental data as given in ChEMBL document CHEMBL4368916, “Design, Synthesis, and Biological Evaluation of Retinoic Acid-Related Orphan Receptor γt (RORγt) Agonist Structure-Based Functionality Switching Approach from In House RORγt Inverse Agonist to RORγt Agonist” (J Med Chem, 2019).
Active and inactive are the calls of the source. The calls are words filed in the database; no cut-off is given here.

How the values were obtained:
[1] = target: T1, Nuclear receptor ROR-gamma (Mus musculus) (UniProt P51450); assay: Agonist activity at RORgammat in mouse naive CD4+ T cells assessed as induction of IL17 production at 0.1 to 3 uM after 4 days by ELISA; type: cell-based
T1 sequence (whole entry): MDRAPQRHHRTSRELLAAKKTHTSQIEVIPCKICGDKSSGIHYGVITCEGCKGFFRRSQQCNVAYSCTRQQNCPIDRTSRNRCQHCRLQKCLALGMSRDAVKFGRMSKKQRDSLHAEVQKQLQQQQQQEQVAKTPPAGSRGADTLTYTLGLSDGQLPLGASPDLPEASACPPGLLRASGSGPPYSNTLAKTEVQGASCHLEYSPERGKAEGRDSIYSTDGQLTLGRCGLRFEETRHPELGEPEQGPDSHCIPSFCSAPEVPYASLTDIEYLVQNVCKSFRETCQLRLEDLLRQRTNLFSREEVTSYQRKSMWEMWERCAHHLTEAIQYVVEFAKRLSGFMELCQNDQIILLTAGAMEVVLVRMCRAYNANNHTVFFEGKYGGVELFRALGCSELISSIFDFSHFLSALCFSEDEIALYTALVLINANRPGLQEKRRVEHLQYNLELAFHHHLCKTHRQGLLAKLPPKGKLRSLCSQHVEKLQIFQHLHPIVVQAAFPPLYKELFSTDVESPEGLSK

[2] = Oral bioavailability in ICR mouse at 1 mg/kg by LC/MS/MS analysis; type: ADME, organism-based; conditions: in vivo
HepG2 = assay: Cytotoxicity against human HepG2 cells at 100 uM; type: cell-based; conditions: hepg2, 100 µM
Cytochrome P450 3A4 = Cytochrome P450 3A4 (Homo sapiens, UniProt P08684); assay: Inhibition of CYP3A4 (unknown origin) at 10 uM; type: ADME
[3] = Cmax in ICR mouse at 0.1 mg/kg, iv or 1 mg/kg, po by LC/MS/MS analysis; type: ADME, organism-based; conditions: in vivo
[4] = MRT in ICR mouse at 0.1 mg/kg, iv or 1 mg/kg, po by LC/MS/MS analysis; type: ADME, organism-based; conditions: in vivo
[5] = AUC (0 to 8 hrs) in ICR mouse at 0.1 mg/kg, iv or 1 mg/kg, po by LC/MS/MS analysis; type: ADME, organism-based; conditions: in vivo
[6] = target: T1, Nuclear receptor ROR-gamma (Mus musculus); assay: Inverse agonist activity at RORgammat in mouse naive CD4+ T cells assessed as […] of IL17 production at 0.001 to 10 uM after 4 days by ELISA; type: cell-based

Cytochrome P450 3A4, sequence (P08684 whole entry): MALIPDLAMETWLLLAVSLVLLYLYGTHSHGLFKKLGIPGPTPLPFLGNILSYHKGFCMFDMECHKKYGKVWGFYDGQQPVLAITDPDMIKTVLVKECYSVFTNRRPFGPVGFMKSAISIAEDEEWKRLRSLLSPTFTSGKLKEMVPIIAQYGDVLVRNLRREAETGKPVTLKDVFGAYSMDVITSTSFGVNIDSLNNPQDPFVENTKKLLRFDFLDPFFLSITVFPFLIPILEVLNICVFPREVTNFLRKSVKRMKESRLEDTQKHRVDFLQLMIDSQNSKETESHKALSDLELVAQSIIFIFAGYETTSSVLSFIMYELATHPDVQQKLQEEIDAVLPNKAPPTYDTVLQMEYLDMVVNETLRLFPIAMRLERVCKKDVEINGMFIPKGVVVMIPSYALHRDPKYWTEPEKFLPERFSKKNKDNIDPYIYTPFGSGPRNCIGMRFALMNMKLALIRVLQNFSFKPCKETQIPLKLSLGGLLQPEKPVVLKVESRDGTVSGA

| Activity [1] | bioavailability [2] | inhibition (INH) (Cytochrome P450 3A4) | Cmax [3] | MRT [4] | AUC(0-t) [5] | Activity [6] | Structure (SMILES) | Activity (HepG2) |
| --- | --- | --- | --- | --- | --- | --- | --- | --- |
| Dose-dependent effect |  |  |  |  |  |  | CCOc1ccccc1CN1CCc2cc(NC(=O)[C@H]3c4ccc(OC)nc4CCN3C(C)=O)ccc21 |  |
| Dose-dependent effect | 19% | Not Active | 0.227 µg/mL | 4.1 h | 1.72 µg·h/mL |  | CCOc1ccccc1CN1CCc2cc(NC(=O)[C@H]3c4ccc(OC)nc4CCN3C(=O)CCCC(=O)O)ccc21 | Non-Toxic |
|  |  |  |  |  |  | Active | COc1ccc2c(n1)CCN(C(=O)CCCC(=O)O)[C@H]2C(=O)Nc1cc(F)c2c(c1)CCC2(C)C |  |
